From patent US6004967A, “Psoriasis treatment with quinazoline compounds” (priority 1997, dated 1999)
pIC50: −log10 of the molar value.

Experiments:
A431 = assay: Cell growth (SRB), A431; type: cell-based
Description: In vitro functional studies. […] Cell lines examined in receptor phosphorylation ELISA were 3T3-EGFR, 3T3-EGFR/Her-2, 3T3-PDGF-bR, 3T3-IGF1R, and 3T3-IR. For analysis of DNA replication (measured as incorporation of BrdU) and cell cycle progression, 3T3-EGFR and 3T3-PDGF-bR cell lines were used. Cell growth studies were carried out on A431 (EGF-R+), BT474 (Her-2+), and C6 (PDGF-bR+) cell lines.
After 4 days, cell density was measured by SRB staining. IC50 values were determined by regression analysis. For these experiments, cell lines whose growth is dependent on naturally-expressed RTK were examined.

[1] = Solubility of A1 in pure solvents

COc1cc2ncnc(Nc3cccc(Br)c3)c2cc1OC [A1, 4-(3-Bromophenylamino)-6,7-dimethoxyquinazoline]
growth of cell lines driven by the EGF-R/Her family of RTK (in words) (A431): preferentially inhibited
pIC50 (A431; Homo sapiens, A-431, 96 h): 5.80
Not Soluble at ([1]; Benzyl Alcohol, NF): 4.77 % w/w
Soluble at ([1]; Benzyl Alcohol, NF): 3.60 % w/w
Not Soluble at ([1]; Benzyl Benzoate, USP (printed Betizyl Berizoate)): 0.85 % w/w
Not Soluble at ([1]; Caprylic/Capric Triglyceride (Miglyol 812)): 0.84 % w/w
Not Soluble at ([1]; Dehydrated Alcohol, USP): 0.98 % w/w
Soluble at ([1]; Dehydrated Alcohol, USP): 0.76 % w/w
compatibility / solubility ([1]; Diethyl Sebacate): not compatible (yellow)
Not Soluble at ([1]; Diisopropyl Adipate): 0.66 % w/w
Not Soluble at ([1]; Dimethyl isosorbide): 0.97 % w/w
Not Soluble at ([1]; Ethoxydiglycol (Transcutol)): 3.74 % w/w
Soluble at ([1]; Ethoxydiglycol (Transcutol)): 2.41 % w/w
Not Soluble at ([1]; Finsolve TN (Finetex)): 1.27 % w/w
Not Soluble at ([1]; Hexylene Glycol): 2.05 % w/w
Soluble at ([1]; Hexylene Glycol): 0.98 % w/w
Not Soluble at ([1]; Isopropyl Alcohol, 99%): 1.25 % w/w
Not Soluble at ([1]; Isotearyl Alcohol): 0.99 % w/w
Soluble at ([1]; Laureth 4): 4.10 % w/w
Not Soluble at ([1]; Octyldodecanol, NF): 0.68 % w/w
Not Soluble at ([1]; Oleic Acid, NF): 1.00 % w/w
Not Soluble at ([1]; Polyethylene Glycol 300, USP): 2.10 % w/w
Soluble at ([1]; Polyethylene Glycol 300, USP): 1.00 % w/w
Not Soluble at ([1]; Polyethylene Glycol 400, USP): 2.44 % w/w
Soluble at ([1]; Polyethylene Glycol 400, USP): 1.76 % w/w
Not Soluble at ([1]; Polysorbate 20, NF): 0.99 % w/w
Not Soluble at ([1]; Propylene Carbonate, NF): 1.46 % w/w
Soluble at ([1]; Propylene Carbonate, NF): 0.98 % w/w
Not Soluble at ([1]; Propylene Glycol, USP): 0.59 % w/w
Not Soluble at ([1]; Triacetin USP): 0.96 % w/w
solubility in nonirritant solvents (in words) ([1]; among anticancer compounds): relative high solubility in nonirritant solvents
